The test system of data set [1] is Langerhans cells (LC) in human skin explants cultivated on the CAM. The data set is described as follows: Activation and mobilization of Langerhans cells in human skin grafts on the CAM (CD1a staining). The class given is in vivo. The procedure:
Excess fat was manually removed from human skin obtained within 2 hours of surgery. The skin was cut into rectangular/square pieces approximately 7-10 mm on each side and stored on a cold plate at 15° C. in saline. Eggs with an artificial air sac were opened with iris scissors in a sterile hood. The ectodermal surface of the CAM was abraded by touching it briefly with a sterile piece of lens tissue to improve the adherence of the graft. The skin was then gently place on the CAM and stretched out. The eggs were then sealed with scotch tape, and returned to the incubator.
Two-three days after grafting the skin, the eggs were re-opened, and the grafts are evaluated visually for viability. Eggs containing skin that has yellowed or that looks obviously infected were discarded. A plastic ring just smaller than the skin was placed on the graft in order to prevent leakage of the test substance away from the skin, using Vaseline to seal it down. Then, a 50 μl drop of the tested substance was placed on the skin, and the egg was re-sealed and incubated for another 6 hours-5 days. At the end of the re-incubation, the skin was removed from the CAM and prepared for paraffin histology. […]
All the microscopic 400 μm-fields in triplicate sections from each skin sample were counted with a 40× objective. The average number of cells per field was then determined and averaged for that skin sample. […]

The subject of data set [2] is human skin grafted onto the CAM of a fertilized egg. Nature of the data set: Human skin irritation quantified with the skin-CAM system. In kind it is in vivo. As for the experimental part: FIGS. 2B and 2C quantitate the change in epidermal thickness of CAM-grafted and organ culture-maintained human skin. Epidermal thickness was measured using digital photos, by tracing the epidermis with a digitizing pad and determining area using the public domain scientific imaging software ImageJ (http://rsb.info.nih.gov/ij/). Size bars represent 0.05 mm
Punch biopsies of human skin were grafted onto the CAM of a fertilized egg as described in Example 1. The human skin samples were allowed to incubate for 2 days after grafting in order to allow for the skin to incorporate, and then the adhesive tape sealing of the samples was reopened. The detergent sodium dodecylsulfate (SDS) was applied to different skin samples at different concentrations topically using a small plastic ring cut from a pipette tip keep the irritant in place. The skin samples were then resealed and returned to the incubator for an addition three days, whereupon they underwent routine histological and immunochemical analysis using Abs for the proliferation marker PCNA. PCNA^+ cells were counted in several sections, and the length of the epidermis in the section measured. Results are expressed as PCNA^+ cells/mm.

As for `O=[N+]([O-])c1ccc(F)c([N+](=O)[O-])c1` [DNFB, dinitrofluorobenzene], the “CD1a+ LC in the epidermis” value in data set [1] (overnight (O/N) incubation, compared to untreated skin fixed immediately or O/N acetone/olive oil (solvent) treated skin, FIG. 9) is given as “significant decrease”. With `CCCCCCCCCCCCOS(=O)(=O)[O-].[Na+]` [SDS, sodium dodecylsulfate], the epidermal thickness entry in data set [2] (topical SDS treatment, FIG. 3B) is listed as “no significant differences in epidermal thickness”. Further, in data set [2] (topical SDS, 1% and 2.5% produce similar results, 3 days after treatment, p<0.05, FIG. 3A), the “epidermal proliferation (PCNA+ cells/mm)” value was “significantly increases epidermal proliferation”.

B1: LT: lymphotoxin (LT) (protein, UniProt P01374 35-205, looked up)
Lymphotoxin-alpha: LPGVGLTPSAAQTARQHPKMHLAHSTLKPAAHLIGDPSKQNSLLWRANTDRAFLQDGFSLSNNSLLVPTSGIYFVYSQVVFSGKAYSPKATSSPLYLAHEVQLFSSQYPFHVPLLSSQKMVYPGLQEPWLHSMYHGAAFQLTQGDQLSTHTDGIPHLVLSPSTVFFGAFAL
For B1, the “number of CD1a+ LC in epidermis” value in data set [1] (LT-treated skin grafts, FIG. 10) is listed as “clear decrease”.
